Assay results taken from the supplement of paper PMC9663587.

Key:
TGX221 = compound: CC1=CN2C(=O)C=C(N=C2C(=C1)C(C)NC3=CC=CC=C3)N4CCOCC4 [TGX221]
Saracatinib/AZD0530 = compound: CN1CCN(CCOc2cc(OC3CCOCC3)c3c(Nc4c(Cl)ccc5c4OCO5)ncnc3c2)CC1 [Saracatinib/AZD0530]
Ipatasertib/GDC0068 = compound: CC(C)NC[C@@H](C(=O)N1CCN(c2ncnc3c2[C@H](C)C[C@H]3O)CC1)c1ccc(Cl)cc1 [Ipatasertib/GDC0068]
LEE011/Ribociclib = compound: CN(C)C(=O)c1cc2cnc(Nc3ccc(N4CCNCC4)cn3)nc2n1C1CCCC1 [LEE011/Ribociclib]
R0-3306 = compound: C1=CC2=C(C=CC(=C2)C=C3C(=O)NC(=NCC4=CC=CS4)S3)N=C1 [R0-3306]
AZD7762 = compound: NC(=O)Nc1cc(-c2cccc(F)c2)sc1C(=O)N[C@H]1CCCNC1 [AZD7762]
AZD1775 = compound: C=CCn1c(=O)c2cnc(Nc3ccc(N4CCN(C)CC4)cc3)nc2n1-c1cccc(C(C)(C)O)n1 [AZD1775]
Flavopiridol = compound: CN1CC[C@H](c2c(O)cc(O)c3c(=O)cc(-c4ccccc4Cl)oc23)[C@H](O)C1 [Flavopiridol]
[1] = compound: CCCCOc1c(C(=O)c2c(F)cc(C)cc2F)c[nH]c2nncc1-2
THZ-P1-2 = compound: CN(C)C/C=C/C(=O)NC1=CC=C(C=C1)C(=O)NC2=CC=CC(=C2)NC3=NC=NC(=C3)C4=CNC5=CC=CC=C54 [THZ-P1-2]
Luminespib/NVP-AUY922 = compound: CCNC(=O)c1noc(-c2cc(C(C)C)c(O)cc2O)c1-c1ccc(CN2CCOCC2)cc1 [Luminespib/NVP-AUY922]
ABT-737 = compound: CN(C)CC[C@H](CSc1ccccc1)Nc1ccc(S(=O)(=O)NC(=O)c2ccc(N3CCN(Cc4ccccc4-c4ccc(Cl)cc4)CC3)cc2)cc1[N+](=O)[O-] [ABT-737]
[2] = compound: COc1ccc2c(c1)[C@]1(C[C@H]1c1ccc3c(/C=C/c4ccc(CN5C[C@@H](C)O[C@@H](C)C5)cc4)n[nH]c3c1)C(=O)N2
[3] = compound: Cc1nn(C)c(COc2ccc(N3CCN(S(=O)(=O)N(C)C)CC3)cc2)c1-c1cccc2c(CCCOc3cccc4ccccc34)c(C(=O)O)n(CCN3CCOCC3)c12
Torin2 = compound: C1=CC(=CC(=C1)N2C(=O)C=CC3=CN=C4C=CC(=CC4=C32)C5=CN=C(C=C5)N)C(F)(F)F [Torin2]
Buparlisib/NVP-BKM120 = compound: Nc1cc(C(F)(F)F)c(-c2cc(N3CCOCC3)nc(N3CCOCC3)n2)cn1 [Buparlisib/NVP-BKM120]
THZ1 = compound: CN(C)C/C=C/C(=O)Nc1ccc(C(=O)Nc2cccc(Nc3ncc(Cl)c(-c4c[nH]c5ccccc45)n3)c2)cc1 [THZ1]
Tivantinib/ARQ197 = compound: O=C1NC(=O)[C@@H](c2cn3c4c(cccc24)CCC3)[C@@H]1c1c[nH]c2ccccc12 [Tivantinib/ARQ197]
AZD5363 = compound: NC1(C(=O)N[C@@H](CCO)c2ccc(Cl)cc2)CCN(c2nc[nH]c3nccc2-3)CC1 [AZD5363]
Paclitaxel = compound: CC(=O)O[C@H]1C(=O)[C@@]2(C)[C@H]([C@H](OC(=O)c3ccccc3)[C@]3(O)C[C@H](OC(=O)[C@H](O)[C@@H](NC(=O)c4ccccc4)c4ccccc4)C(C)=C1C3(C)C)[C@]1(OC(C)=O)CO[C@@H]1C[C@@H]2O [Paclitaxel]
Pictilisib/GDC0941 = compound: CS(=O)(=O)N1CCN(Cc2cc3nc(-c4cccc5[nH]ncc45)nc(N4CCOCC4)c3s2)CC1 [Pictilisib/GDC0941]
[4] = compound: CCC1=CN=CN=C1N2CCN(CC2)CC3=NC4=C(N3)C=C(C=C4)C(F)(F)F
SHP099 = compound: CC1(CCN(CC1)C2=CN=C(C(=N2)N)C3=C(C(=CC=C3)Cl)Cl)N [SHP099]
[5] = compound: CNc1nc(-c2ccc3c(N)n[nH]c3c2)cc(N2C[C@@H](C(=O)NC3CCCCC3)CC[C@H]2C)n1
[6] = compound: CCN1CCN(Cc2ccc(Nc3ncc(F)c(-c4cc(F)c5nc(C)n(C(C)C)c5c4)n3)nc2)CC1
senexin b = compound: CN1CCN(C(=O)c2ccc3cc(CCNc4ncnc5ccc(C#N)cc45)ccc3c2)CC1 [senexin b]
Alpelisib/BYL719 = compound: Cc1nc(NC(=O)N2CCC[C@H]2C(N)=O)sc1-c1ccnc(C(C)(C)C(F)(F)F)c1 [Alpelisib/BYL719]
Cediranib/AZD2171 = compound: COc1cc2c(Oc3ccc4[nH]c(C)cc4c3F)ncnc2cc1OCCCN1CCCC1 [Cediranib/AZD2171]
Olaparib/AZD2281 = compound: O=C(c1cc(Cc2n[nH]c(=O)c3ccccc23)ccc1F)N1CCN(C(=O)C2CC2)CC1 [Olaparib/AZD2281]
[7] = compound: CCc1cnn2c(NCc3ccc[n+]([O-])c3)cc(N3CCCC[C@H]3CCO)nc12
BVD523 = compound: CC(C)Nc1cc(-c2c[nH]c(C(=O)N[C@H](CO)c3cccc(Cl)c3)c2)c(Cl)cn1 [BVD523]
AZD6738 = compound: C[C@@H]1COCCN1c1cc(C2([S@](C)(=N)=O)CC2)nc(-c2cc[nH]c3nccc2-3)n1 [AZD6738]
Cabozantinib = compound: COc1cc2nccc(Oc3ccc(NC(=O)C4(C(=O)Nc5ccc(F)cc5)CC4)cc3)c2cc1OC [Cabozantinib]
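Further: breast cancer and non-malignant breast epithelial cell lines, Deep Dye Drop or Dye Drop imaging, nine half-log doses, GR normalized to time-zero plates and DMSO-only controls.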

Cell Line | GR50, 72 h (TGX221) [µM] | GR50, 72 h (Saracatinib/AZD0530) [µM] | GR50, 72 h (Ipatasertib/GDC0068) [µM] | GR50, 72 h (LEE011/Ribociclib) [µM] | GR50, 72 h (R0-3306) [µM] | GR50, 72 h (AZD7762) [µM] | GR50, 72 h (AZD1775) [µM] | GR50, 72 h (Flavopiridol) [µM] | GR50, 72 h [1] [µM] | GR50, 72 h (THZ-P1-2) [µM] | GR50, 72 h (Luminespib/NVP-AUY922) [µM] | GR50, 72 h (ABT-737) [µM] | GR50, 72 h [2] [µM] | GR50, 72 h [3] [µM] | GR50, 72 h (Torin2) [µM] | GR50, 72 h (Buparlisib/NVP-BKM120) [µM] | GR50, 72 h (THZ1) [µM] | GR50, 72 h (Tivantinib/ARQ197) [µM] | GR50, 72 h (AZD5363) [µM] | GR50, 72 h (Paclitaxel) [µM] | GR50, 72 h (Pictilisib/GDC0941) [µM] | GR50, 72 h [4] [µM] | GR50, 72 h (SHP099) [µM] | GR50, 72 h [5] [µM] | GR50, 72 h [6] [µM] | GR50, 72 h (senexin b) [µM] | GR50, 72 h (Alpelisib/BYL719) [µM] | GR50, 72 h (Cediranib/AZD2171) [µM] | GR50, 72 h (Olaparib/AZD2281) [µM] | GR50, 72 h [7] [µM] | GR50, 72 h (BVD523) [µM] | GR50, 72 h (AZD6738) [µM] | GR50, 72 h (Cabozantinib) [µM]
SUM1315 | > 10 | 1.39 | > 10 | 2.83 | 2.79 | 0.0527 | < 0.001 | 0.104 | 0.00376 | 7.11 | 0.00486 | 5.96 | 0.00184 | > 10 | 0.015 | 0.402 | 0.251 | 0.37 | > 10 | 0.00246 | 0.511 | > 10 | > 10 | 3.85 | 0.0493 | > 10 | 6.46 | 1.47 | 2.03 | 0.0109 | 6 | 4.46 | 4.52
CAL120 | > 10 | > 10 | > 10 | > 10 | 8.5 | 0.156 | 0.197 | 0.209 | 2.2 | 6.25 | 0.00281 | 2.15 | 0.00365 | > 10 | 0.0105 | 0.702 | 0.0579 | 0.251 | > 10 | 0.00288 | 2.07 | > 10 | > 10 | > 10 | 0.247 | > 10 | > 10 | 1.04 | 5.12 | 0.00989 | 9.62 | > 10 | 7.34
AU565 | > 10 | 4.82 | 3.89 | 0.663 | 0.478 | 0.805 | 0.216 | 0.09 | 0.142 | 5.22 | 0.00456 | 7.24 | 0.00339 | > 10 | 0.00547 | 0.106 | 0.0187 | 0.215 | 5.83 | 0.00163 | 0.067 | 9.42 | > 10 | 7.64 | 0.0308 | > 10 | 0.27 | > 10 | > 10 | 0.00743 | > 10 | 8.56 | 9.13
HCC1569 | > 10 | 3.28 | 0.394 | > 10 | 4.54 | 0.0361 | 0.00634 | 0.11 | 0.0109 | 4.75 | 0.0107 | 1.07 | 0.00952 | > 10 | 0.0105 | 0.908 | 0.0283 | 0.992 | 0.358 | 0.00208 | 0.599 | > 10 | > 10 | > 10 | 4.64 | > 10 | 5.28 | > 10 | > 10 | 0.0164 | > 10 | 3.49 | > 10
SUM229PE | > 10 | 5.44 | > 10 | > 10 | 6.23 | 0.0909 | 0.00928 | 0.109 | 0.0124 | 5.54 | 0.00595 | 8.41 | 0.00229 | > 10 | 0.0523 | 1.27 | 0.0185 | 0.083 | > 10 | 0.00176 | 3.92 | > 10 | > 10 | > 10 | 0.531 | > 10 | > 10 | 8.64 | > 10 | 0.0141 | 1.6 | 3.34 | 6.79
HCC1937 | > 10 | > 10 | > 10 | > 10 | 5.17 | 0.17 | 0.00892 | 0.168 | < 0.001 | 4.05 | 0.0114 | 5.77 | 0.00432 | > 10 | 0.0934 | 1.45 | 0.0648 | 0.649 | > 10 | 0.00245 | 2.42 | > 10 | > 10 | > 10 | 4.82 | 4.95 | > 10 | 8.4 | > 10 | 0.0218 | > 10 | 9.08 | > 10
